One assay has as its system Caco2 organoids (WT). Nature of the assay: MTS assay of mitochondrial metabolism in CRC organoids in microfluidic devices. The note with it: 48-hour treatment. In kind it is cell-based. An excerpt:
(§1) Precision medicine—identifying treatments for patients based on their tumor genetic profiles—has gained significant traction. […] In a non-limiting example, colorectal cancer (CRC) organoids were created by encapsulating CRC cells (Caco2 and SW480—WT; HCT116—KRASMT; and HT29—BRAFMT) in hyaluronic acid and gelatin hydrogels in microfluidic devices. Each type of CRC organoid was then subjected to a panel of clinical CRC drugs: 5-FU or oxaliplatin (1st line drugs effective in WT tumors), Tramatinib (an EGFR pathway drug effective in KRASMT tumors), and sorafenib or regorafenib (EGFR pathway drugs effective in BRAFMT tumors). Following 48-hour treatments, organoids were assessed for mitochondrial metabolism by MTS assays. There appeared to be clear differences in drug responsiveness that correlated with EGFR genetic states.

A further assay deals with SW480 organoids (WT). The description is as above. In kind it is cell-based. Conditions: 48-hour treatment.
Description: as §1

Assay [1] concerns HCT116 organoids (KRASMT). Described as above. In kind it is cell-based, human. Conditions: 48-hour treatment.
Description: as §1

For a further assay, the system named is HCT-116 cells. Description: Drug treatment and assessment of migration, multi-zone tumor organoid migration model (soft tumor, stiff tissue). In kind it is cell-based, human. The note with it: 50 μM Marimastat in DMEM vs no drug control. How it is done: To assess the influence of the physical tumor microenvironment parameters on tumor cell migration, a variation of the organoids described above were […]. Instead of encapsulating homogenously mixed cells throughout the hydrogel, 3-D organoid volumes were formed first, after which a volume of 5 μL HCT-116 cells in hydrogel precursor solution was pipetted into the center of the organoid space and polymerized in place by a 1 second exposure to UV light. […] Organoid and tumor zone elastic moduli were modulated by swapping of the linear PEGDA crosslinker molecule (3.4 kDa MW) with a 4-arm PEG-acrylate molecule (10 kDa MW, Creative PEGWorks, Winston-Salem, N.C.) or 8-arm PEG-acrylate crosslinker molecule (10 kDa MW, Creative PEGWorks) to generate stiffer hydrogels. […] Fluorescent and brightfield overlay images were captured on day 3, day 7, and day 10, from which distances of migration of cells out of the tumor were determined over time using ImageJ software. […]

The next assay relates to HT29 organoids (BRAFMT). Nature of the assay: MTS assay of mitochondrial metabolism in CRC organoids in microfluidic devices. In kind it is cell-based. Conditions: 48-hour treatment.
Description: as §1
On the technique in general: Tetrazolium dyes change colour on reduction, which living cells bring about.

“Also recorded” adds a separate entry of the source.

In the case of `O=c1[nH]cc(F)c(=O)[nH]1` [5-FU], the “drug sensitivity (mitochondrial metabolism by MTS)” value (“drug sensitivity” for short) (in the assay on Caco2 organoids (WT); in the assay on SW480 organoids (WT); in assay [1]) was “particularly sensitive” each time. `CNC(=O)C(NC(=O)C(CC(C)C)C(O)C(=O)NO)C(C)(C)C` (stereo not shown) [Marimastat, N-[2,2-dimethyl-1-(methylcarbamoyl)propyl]-2-[hydroxy-(hydroxycarbamoyl)methyl]-4-methyl-pentanamide]: the “migration distance of HCT-116 cells out of the tumor” value in the assay with HCT-116 cells (day 3, day 7 and day 10, length in pixel counts, p<0.05) is reported as “significantly prevented migration”. Further, in the assay with HCT-116 cells (overlay images, day 10), the “tumor cell invasion / outward growth of HCT-116 aggregates into the surrounding 3-D environment” value is reported as “reduce tumor cell invasion; also recorded: prevents outward growth of aggregates”. For `CNC(=O)c1cc(Oc2ccc(NC(=O)Nc3ccc(Cl)c(C(F)(F)F)c3)c(F)c2)ccn1` [regorafenib], the “drug sensitivity” value in the assay with HT29 organoids (BRAFMT) is “slight sensitivity”. With `CNC(=O)c1cc(Oc2ccc(NC(=O)Nc3ccc(Cl)c(C(F)(F)F)c3)cc2)ccn1` [sorafenib], the “drug sensitivity” value in assay [1] is “particularly sensitive”.

The values above are taken from patent publication US11047847B2, “Methods and apparatus for modeling cancer metastasis in vitro” (Wake Forest University Health Sciences, priority 2015, dated 2021).
